The source of these data is US6593480B2 (Abbott Laboratories, priority 1999, dated 2003).

Test [1] has as its target T1, Human glucocorticoid receptors (Homo sapiens, UniProt P04150).
T1 construct: made in house; host or cells: Sf9 insect cells, recombinant baculovirus (BAC-TO-BAC)
T1 sequence (P04150 1-777): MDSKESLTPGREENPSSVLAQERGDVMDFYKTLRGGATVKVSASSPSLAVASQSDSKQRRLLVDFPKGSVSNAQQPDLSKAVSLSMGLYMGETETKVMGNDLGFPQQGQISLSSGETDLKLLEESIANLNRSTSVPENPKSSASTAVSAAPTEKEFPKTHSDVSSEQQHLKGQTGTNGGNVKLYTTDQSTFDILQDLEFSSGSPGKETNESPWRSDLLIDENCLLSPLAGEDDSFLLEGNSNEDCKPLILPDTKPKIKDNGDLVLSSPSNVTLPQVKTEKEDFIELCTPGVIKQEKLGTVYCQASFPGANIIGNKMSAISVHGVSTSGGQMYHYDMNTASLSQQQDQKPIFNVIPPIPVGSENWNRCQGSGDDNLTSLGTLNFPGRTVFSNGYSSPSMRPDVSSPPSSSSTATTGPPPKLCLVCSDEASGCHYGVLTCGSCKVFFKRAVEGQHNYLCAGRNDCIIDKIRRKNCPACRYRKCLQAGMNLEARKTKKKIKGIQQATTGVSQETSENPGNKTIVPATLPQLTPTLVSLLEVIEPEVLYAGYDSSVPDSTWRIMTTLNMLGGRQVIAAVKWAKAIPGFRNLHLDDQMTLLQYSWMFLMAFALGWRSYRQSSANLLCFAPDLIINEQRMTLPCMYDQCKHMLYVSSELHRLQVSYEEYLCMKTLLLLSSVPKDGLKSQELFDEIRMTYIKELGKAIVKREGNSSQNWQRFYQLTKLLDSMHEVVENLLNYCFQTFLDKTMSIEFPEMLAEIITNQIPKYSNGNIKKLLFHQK
The experiment in a line: Radioligand filter binding assay, displacement of 3(H)-dexamethasone from human glucocorticoid receptor cytosol. Conditions: 1.7 μM test compound, inhibition of 3(H)-dex binding to hGR; for inhibition at 1.7 µM: read-out: GR BINDING (% Inhibition @ 1.7 μM).
Protocol: Dexamethasone hereafter referred to as dex was purchased from SIGMA. […] Human glucocorticoid receptors were extracted from Sf9 cells infected with a recombinant baculovirus transfer vector containing the cloned hGR genes. […] The recombinant baculovi, uses expressing hGR were amplified and used to infect Sf9 cells. Infected cells were harvested 48 hrs post infection. […] The concentration of hGR in the extract was measured as specific ^3(H)-dex binding with the G25-assay as described in J. Steroid Biochem. Molec. […] The extract was aliquoted and stored at −70° C.
The filter binding assay: Dilution series of the test compounds and dex as reference were made from 10 mM (1 mM dex) stock solutions in DMSO. 10 μl of the dilutions was added in duplicates to the wells. The cell extracts were diluted 10 fold in EPMo +MTG buffer (1 mM EDTA, HPO4 20 mM (pH8), 6 mM MTG). […] 110 μl of the diluted ^3(H)-dex were added to the wells. The final concentration of hGR in the experiment was estimated to 1 nM. All preparations were made in ambient temperature (20-25° C.) on ice and with +4° C. temperated buffers. The plates were incubated over night at +4° C. (15-20hrs).
The incubation was stopped by filtration through GF/B filter on the Tomtec Cellharvester. The filtration on the Tomtec Cellharvester was programmed as follows: 1) Preparation before filtration with EP buffer (1 mM EDTA 20 mM HPO4 (pH8)) 2×(Wash/Asp 0.6 sec., Asp 0.5 sec.); 2) Prewet of GF/B filter with EP+PEI buffer (EP buffer, 0.3% Polyesthylenimine) (Asp 0.8 sec.). 3) Filtration/harvesting of the 96-well incubation plate 3×(Wash/Asp 0.6 sec., Asp 0.5 sec.). The GF/B filter was dried for at least 1 hr at 65° C. A MeltiLex scintillation wax was melted onto the filter with the Microsealer. The filter was placed in a samplebag, which was thereafter trimmed with scissors to fit the filter cassette. The cassette were placed in the Microbeta and measured for 1 min/position, returning ccpm (conrected counts per minute).
The Microbeta-instrument generates the mean cpm (counts per minute) value/minute and corrects for individual variations between the detectors thus generating corrected cpm values.

The target in test [2] is T2, progesterone receptor (PR) (Homo sapiens, UniProt P06401).
T2 sequence (P06401 1-933): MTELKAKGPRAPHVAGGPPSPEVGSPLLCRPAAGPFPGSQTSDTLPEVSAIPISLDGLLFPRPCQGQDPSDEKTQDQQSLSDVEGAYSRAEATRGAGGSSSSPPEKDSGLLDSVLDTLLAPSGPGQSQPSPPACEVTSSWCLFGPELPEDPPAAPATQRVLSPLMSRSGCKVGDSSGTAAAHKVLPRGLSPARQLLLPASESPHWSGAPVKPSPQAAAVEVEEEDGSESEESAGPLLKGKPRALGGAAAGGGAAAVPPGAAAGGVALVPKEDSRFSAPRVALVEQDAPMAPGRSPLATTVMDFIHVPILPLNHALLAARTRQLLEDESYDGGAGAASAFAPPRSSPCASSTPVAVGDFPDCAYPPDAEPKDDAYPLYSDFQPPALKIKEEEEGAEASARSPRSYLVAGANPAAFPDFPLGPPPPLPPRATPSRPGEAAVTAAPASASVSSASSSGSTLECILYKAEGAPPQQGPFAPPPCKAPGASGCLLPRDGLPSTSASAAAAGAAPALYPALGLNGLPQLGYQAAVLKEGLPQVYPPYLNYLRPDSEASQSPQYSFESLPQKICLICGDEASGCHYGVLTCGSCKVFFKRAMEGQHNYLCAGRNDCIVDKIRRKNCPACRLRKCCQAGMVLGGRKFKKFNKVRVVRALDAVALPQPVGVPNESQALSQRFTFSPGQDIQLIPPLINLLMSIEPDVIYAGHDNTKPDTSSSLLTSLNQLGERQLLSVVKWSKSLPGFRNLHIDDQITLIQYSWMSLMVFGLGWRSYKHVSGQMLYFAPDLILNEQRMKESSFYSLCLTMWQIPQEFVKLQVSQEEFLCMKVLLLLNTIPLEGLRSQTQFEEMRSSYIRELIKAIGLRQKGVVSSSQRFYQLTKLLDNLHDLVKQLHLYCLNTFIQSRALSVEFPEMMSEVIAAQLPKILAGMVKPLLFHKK
In words: Radioligand binding assay with progesterone receptor cytosol (similar protocol). The source says:
Methods for Radioligand Binding Studies with Human Glucocorticoid and Progesterone Receptor Cytosol
A similar protocol was employed to measure affinity of the compounds of the present invention for progesterone receptor (PR).

Each structure is given as a SMILES string.

By inhibition is commonly meant the relative decrease from the control value, in per cent. Regarding `COc1cccc2c1-c1ccc(NS(C)(=O)=O)cc1C(c1cccc(CCCC(=O)N3CCCCC3)c1)O2` (stereo not drawn) [Example 142, N-(1-methoxy-6-{3-[4-oxo-4-(1-piperidinyl)butyl]phenyl}-6H-benzo[c]chromen-8-yl)methanesulfonamide], the inhibition at 1.7 µM in test [1] was 78.2%.
As for `CC(=O)c1cccc2c1-c1ccc(NS(C)(=O)=O)cc1C(c1ccccc1)O2` (stereo not drawn) [Example 38], in test [1], the inhibition at 1.7 µM is 58.9%.
Take `COc1cccc2c1-c1ccc(NCC3CC3)cc1C(c1ccccc1)O2` (stereo not drawn) [Example 20, (1-methoxy-6-phenyl-6H-dibenzo(b,d)pyran-8-yl)cyclopropylmethylamine]: the inhibition at 1.7 µM in test [1] stood at 54.4%.
For the compound `COc1cccc2c1-c1ccc(NS(C)(=O)=O)cc1[C@@H](c1ccccc1)O2` [Example 23, 6R-(1-methoxy-6-phenyl-6H-dibenzo(b,d)pyran-8-yl)methanesulfonamide], the “GR BINDING (% Inhibition @ 1.7 μM)” value in test [1] is listed as 36.9%.
As to `COc1cccc2c1-c1ccc(NS(C)(=O)=O)cc1C(c1cccc(-c3ccc(C(=O)O)cc3)c1)O2` (stereo not drawn) [Example 122, 3′-{1-methoxy-8-[(methylsulfonyl)amino]-6H-benzo[c]chromen-6-yl}[1,1′-biphenyl]-4-carboxylic acid], the inhibition at 1.7 µM in test [1] turned out to be 63.8%.
For the compound `COc1cccc2c1-c1ccc(CS(N)(=O)=O)cc1C(C1CCCCC1=O)O2` (stereo not drawn) [Example 72, (1-methoxy-6-(2-(1-oxocyclohexyl))-6H-dibenzo(b,d)pyran-8-yl)methanesulfonamide], the “GR BINDING (% Inhibition @ 1.7 μM)” value in test [1] is 58.8%.
On the same count and under the same terms, under `COc1cccc2c1-c1ccc(NC(=O)C3CC3)cc1C(c1ccccc1)O2` (stereo not drawn) [Example 16, (1-methoxy-6-phenyl-6H-dibenzo(b,d)pyran-8-yl)cyclopropanecarboxamide] stands 74.3%.
As for `CCOC(=O)C(C)CCCc1cccc(C2Oc3cccc(OC(F)F)c3-c3ccc(NS(C)(=O)=O)cc32)c1` (stereo not drawn) [Example 135, ethyl 5-(3-{1-(difluoromethoxy)-8-[(methylsulfonyl)amino]-6H-benzo[c]chromen-6-yl}phenyl)-2-methylpentanoate], the inhibition at 1.7 µM in test [1] was found to be 83.7%.
Still for that read-out and setting: under `CCOC(=O)CCCc1cccc(C2Oc3cccc(OC)c3-c3ccc(NS(C)(=O)=O)cc32)c1` (stereo not drawn) [Example 150, ethyl 4-(3-{1-methoxy-8-[(methylsulfonyl)amino]-6H-benzo[c]chromen-6-yl}phenyl)butanoate] stands 90.8%.
Consider `CS(=O)(=O)Nc1ccc2c(c1)C(c1ccccc1)Oc1cccc(-c3ccco3)c1-2` (racemic) [Example 40], for which, in test [1], the inhibition at 1.7 µM stood at 69.3%.
On the same count and under the same terms, as for `COc1cccc2c1-c1ccc(NC(=O)C(F)(F)F)cc1C(c1ccccc1)O2` (stereo not drawn) [Example 22, (1-methoxy-6-phenyl-6H-dibenzo(b,d)pyran-8-yl)trifluoroacetamide], the figure is 87.9%.
Regarding `C=CCOc1cccc2c1-c1ccc(NS(C)(=O)=O)cc1C(c1ccccc1)O2` (stereo not drawn) [Example 78, N-[1-(allyloxy)-6-phenyl-6H-benzo[c]chromen-8-yl]methanesulfonamide], the inhibition at 1.7 µM in test [1] was found to be 77.9%.
Same read-out and setting: as for `CCOC(=O)CCCc1cccc(C2Oc3cccc(OC(F)F)c3-c3ccc(NS(C)(=O)=O)cc32)c1` (stereo not drawn) [Example 115, ethyl 4-(3-{1-(difluoromethoxy)-8-[(methylsulfonyl)amino]-6H-benzo[c]chromen-6-yl}phenyl)butanoate], the figure is 83.5%.
In the case of `COc1cccc2c1-c1ccc(NS(C)(=O)=O)cc1C(c1cccc(O)c1)O2` (stereo not drawn) [Example 34, (1-methoxy-6-(3-hydroxy)phenyl-6H-dibenzo(b,d)pyran-8-yl)-methanesulfonamide], in test [1], the “GR BINDING (% Inhibition @ 1.7 μM)” value was 81.6%.
Regarding `COc1cccc2c1-c1ccc(NS(C)(=O)=O)cc1C(Cc1cccc(C#N)c1)O2` (stereo not drawn) [Example 49], the inhibition at 1.7 µM in test [1] was determined as 75.1%.
As for `COCCCCCCc1cccc(C2Oc3cccc(OC(F)F)c3-c3ccc(NS(C)(=O)=O)cc32)c1` (stereo not drawn) [Example 141, N-{1-(difluoromethoxy)-6-[3-(6-methoxyhexyl)phenyl]-6H-benzo[c]chromen-8-yl}methanesulfonamide], the inhibition at 1.7 µM in test [1] came out at 93.6%.
The term IC50 denotes the concentration at which inhibition is half-maximal. A lower IC50 goes with greater potency in that assay. Regarding `COc1ccc(Br)c2c1-c1ccc(NS(C)(=O)=O)cc1C(c1ccccc1)O2` (stereo not drawn) [Example 154, N-(4-bromo-1-methoxy-6-phenyl-6H-benzo[c]chromen-8-yl)methanesulfonamide], the IC50 in test [2] is 680 nM.
For the compound `CS(=O)(=O)Nc1ccc2c(c1)C(c1cccc(-c3ccccc3Cl)c1)Oc1cccc(OC(F)F)c1-2` (stereo not drawn) [Example 146, N-[6-(2′-chloro[1,1′-biphenyl]-3-yl)-1-(difluoromethoxy)-6H-benzo[c]chromen-8-yl]methanesulfonamide], the IC50 in test [2] was 260 nM.
In test [2], `CCOC(=O)CCCCCc1cccc(C2Oc3cccc(OC(F)F)c3-c3ccc(NS(C)(=O)=O)cc32)c1` (stereo not drawn) [Example 119, ethel 6-(3-{1-(difluoromethoxy)-8-[(methylsulfonyl)amino]-6H-benzo[c]chromen-6-yl}phenyl)hexanoate] had an IC50 of 1960 nM.
As for `CCS(=O)(=O)N(C)c1cccc(C2Oc3cccc(OC)c3-c3ccc(NS(C)(=O)=O)cc32)c1` (stereo not drawn) [Example 131, N-(3-{1-methoxy-8-[(methylsulfonyl)amino]-6H-benzo[c]chromen-6-yl}phenyl)-N-methylethanesulfonamide], the IC50 in test [2] was greater than 10000 nM.
`COc1cccc2c1-c1ccc(NS(C)(=O)=O)cc1C(c1ccc(C#Cc3ccccc3)s1)O2` (stereo not drawn) [Example 93, N-{1-methoxy-6-[5-(phenylethynyl)-2-thienyl]-6H-benzo[c]chromen-8-yl}methanesulfonamide] had an IC50 in test [2] greater than 1000 nM.
As for `COc1cccc2c1-c1ccc(NS(C)(=O)=O)cc1C(c1ccsc1)O2` (stereo not drawn) [Example 97, N-[1-methoxy-6-(3-thienyl)-6H-benzo[c]chromen-8-yl]methanesulfonamide], in test [2], the IC50 was 180 nM.
Still for that read-out and setting: as for `COc1ccc(-c2cccc(C3Oc4cccc(OC(F)F)c4-c4ccc(NS(C)(=O)=O)cc43)c2)cc1` (stereo not drawn) [Example 145, N-[1-(difluoromethoxy)-6-(4′-methoxy[1,1′-biphenyl]-3-yl)-6H-benzo[c]chromen-8-yl]methanesulfonamide], the figure is 390 nM; as for `CS(=O)(=O)Nc1ccc2c(c1)C(c1cccc(F)c1)Oc1cccc(OC(F)F)c1-2` (stereo not drawn) [Example 107, N-[1-(difluoromethoxy)-6-(3-fluorophenyl)-6H-benzo[c]chromen-8-yl]methanesulfonamide], 60 nM; as for `COc1cccc2c1-c1ccc(NS(C)(=O)=O)cc1C(c1cccc(-c3ccc(O)cc3)c1)O2` (stereo not drawn) [Example 128, N-[6-(4′-hydroxy[1,1′-biphenyl]-3-yl)-1-methoxy-6H-benzo[c]chromen-8-yl]methanesulfonamide], 880 nM.
The same measure, in the same setting: as for `COc1cccc2c1-c1ccc(NS(C)(=O)=O)cc1C(c1cccc(-c3ccc(N(C)C)cc3)c1)O2` (stereo not drawn) [Example 133, N-{6-[4′-(dimethylamino)[1,1′-biphenyl]-3-yl]-1-methoxy-6H-benzo[c]chromen-8-yl}methanesulfonamide], the figure is greater than 10000 nM; as for `CCOC(=O)c1cccc(C2Oc3cccc(OC(F)F)c3-c3ccc(NS(C)(=O)=O)cc32)c1` (stereo not drawn) [Example 114, ethyl 3-{1-(difluoromethoxy)-8-[(methylsulfonyl)amino]-6H-benzo[c]chromen-6-yl}benzoate], 290 nM.
